In PubChem BioAssay AID2060508 (Molecular Pharmacology Branch, DTP, NCI, 2025):

Test system: 454973-116-R2-J3-PDC spheroids, viability, % test/control
Test: Anticancer human tumor 454973-116-R2-J3-PDC patient-derived pancreatic carcinoma cell line growth inhibition [GQUAD]
Conditions: spheroids with HUVEC and MSC; for IC50: curve of first compound; for viability, T/C: stronger effect = lower value
Method in brief: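 Multi-cell-type spheroids of tumor cells with HUVEC and mesenchymal stem cells, treated with drug combinations. Concentrations descend in half-log steps from near clinical Cmax, or from 10 microM where Cmax is unknown; viability read-out.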

[1] = second compound 0.0316 µM, first compound 0.0316 µM
[2] = second compound 0.0316 µM, first compound 0.1 µM
[3] = second compound 0.0316 µM, first compound 0.316 µM
[4] = second compound 0.0316 µM, first compound 1 µM
[5] = second compound 0.0316 µM, first compound 3.16 µM
[6] = second compound 0.0316 µM, first compound 10 µM
[7] = second compound 0.1 µM, first compound 0.0316 µM
[8] = second compound 0.1 µM, first compound 0.1 µM
[9] = second compound 0.1 µM, first compound 0.316 µM
[10] = second compound 0.1 µM, first compound 1 µM
[11] = second compound 0.1 µM, first compound 3.16 µM
[12] = second compound 0.1 µM, first compound 10 µM
[13] = second compound 0.316 µM, first compound 0.0316 µM
[14] = second compound 0.316 µM, first compound 0.1 µM
[15] = second compound 0.316 µM, first compound 0.316 µM
[16] = second compound 0.316 µM, first compound 1 µM
[17] = second compound 0.316 µM, first compound 3.16 µM
[18] = second compound 0.316 µM, first compound 10 µM
[19] = second compound 1 µM, first compound 0.0316 µM
[20] = second compound 1 µM, first compound 0.1 µM
[21] = second compound 1 µM, first compound 0.316 µM
[22] = second compound 1 µM, first compound 1 µM
[23] = second compound 1 µM, first compound 3.16 µM
[24] = second compound 1 µM, first compound 10 µM
[25] = second compound 3.16 µM, first compound 0.0316 µM
[26] = second compound 3.16 µM, first compound 0.1 µM
[27] = second compound 3.16 µM, first compound 0.316 µM
[28] = second compound 3.16 µM, first compound 1 µM
[29] = second compound 3.16 µM, first compound 3.16 µM
[30] = second compound 3.16 µM, first compound 10 µM
[31] = second compound 10 µM, first compound 0.0316 µM
[32] = second compound 10 µM, first compound 0.1 µM
[33] = second compound 10 µM, first compound 0.316 µM
[34] = second compound 10 µM, first compound 1 µM
[35] = second compound 10 µM, first compound 3.16 µM
[36] = second compound 10 µM, first compound 10 µM
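Also: spheroids exposed to compounds for seven days.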
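For viability, T/C in this document: 100% = DMSO vehicle control viability.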

COc1ccc([C@@H](O)c2cc(-c3ncnc4cc(N5CCOCC5)ccc34)c(F)cc2Cl)nn1 + Cc1cnc(CNC(=O)c2c(=O)c3ccc(N4CCCN(C)CC4)nc3n3c2sc2ccccc23)cn1
IC50 (second compound 0.0316 µM): 814 nM | IC50 (second compound 0.1 µM): 269 nM | IC50 (second compound 0.316 µM): 416 nM | IC50 (second compound 1 µM): 530 nM | IC50 (second compound 3.16 µM): 578 nM | IC50 (second compound 10 µM): < 31.6 nM | viability, T/C [1]: 104% | viability, T/C [2]: 88.2% | viability, T/C [3]: 72.3% | viability, T/C [4]: 43.9% | viability, T/C [5]: 34% | viability, T/C [6]: 33.9% | viability, T/C [7]: 83.5% | viability, T/C [8]: 71.3% | viability, T/C [9]: 46% | viability, T/C [10]: 35.3% | viability, T/C [11]: 32.1% | viability, T/C [12]: 30.1% | viability, T/C [13]: 70.8% | viability, T/C [14]: 66.3% | viability, T/C [15]: 49.6% | viability, T/C [16]: 42% | viability, T/C [17]: 40.1% | viability, T/C [18]: 30.8% | viability, T/C [19]: 68.2% | viability, T/C [20]: 59.2% | viability, T/C [21]: 55.1% | viability, T/C [22]: 43.7% | viability, T/C [23]: 39.8% | viability, T/C [24]: 28.4% | viability, T/C [25]: 69% | viability, T/C [26]: 54.3% | viability, T/C [27]: 61.2% | viability, T/C [28]: 41.5% | viability, T/C [29]: 39.7% | viability, T/C [30]: 27.3% | viability, T/C [31]: 0.28% | viability, T/C [32]: 0.73% | viability, T/C [33]: 0.4% | viability, T/C [34]: 0.39% | viability, T/C [35]: 0.33% | viability, T/C [36]: 0.28%

CC(=O)O[C@H]1C(=O)[C@@]2(C)[C@H]([C@H](OC(=O)c3ccccc3)[C@]3(O)C[C@H](OC(=O)[C@H](O)[C@@H](NC(=O)c4ccccc4)c4ccccc4)C(C)=C1C3(C)C)[C@]1(OC(C)=O)CO[C@@H]1C[C@@H]2O + Cc1[nH]c2ccc(F)cc2c1-c1nc2c3cccnc3c3ncccc3c2[nH]1
IC50 (second compound 0.0316 µM): < 31.6 nM | IC50 (second compound 0.1 µM): < 31.6 nM | IC50 (second compound 0.316 µM): < 31.6 nM | IC50 (second compound 1 µM): < 31.6 nM | IC50 (second compound 3.16 µM): < 31.6 nM | IC50 (second compound 10 µM): < 31.6 nM | viability, T/C [1]: 15.2% | viability, T/C [2]: 8.26% | viability, T/C [3]: 7.28% | viability, T/C [4]: 6.32% | viability, T/C [5]: 7.13% | viability, T/C [6]: 7.83% | viability, T/C [7]: 14.5% | viability, T/C [8]: 9.64% | viability, T/C [9]: 7.87% | viability, T/C [10]: 6.95% | viability, T/C [11]: 7.87% | viability, T/C [12]: 8.54% | viability, T/C [13]: 14.6% | viability, T/C [14]: 9.07% | viability, T/C [15]: 5.61% | viability, T/C [16]: 5.86% | viability, T/C [17]: 5.85% | viability, T/C [18]: 9.29% | viability, T/C [19]: 12.3% | viability, T/C [20]: 7.44% | viability, T/C [21]: 6.58% | viability, T/C [22]: 5.96% | viability, T/C [23]: 7.37% | viability, T/C [24]: 10.1% | viability, T/C [25]: 11.1% | viability, T/C [26]: 8.56% | viability, T/C [27]: 7.65% | viability, T/C [28]: 6.65% | viability, T/C [29]: 6.16% | viability, T/C [30]: 9.4% | viability, T/C [31]: 12.5% | viability, T/C [32]: 8.79% | viability, T/C [33]: 7.16% | viability, T/C [34]: 7.79% | viability, T/C [35]: 7.84% | viability, T/C [36]: 7.93%

CC(C)n1c(=O)n(C)c2cnc3cc(F)c(-c4ccc(OCCCN5CCCCC5)nc4)cc3c21 + Cc1[nH]c2ccc(F)cc2c1-c1nc2c3cccnc3c3ncccc3c2[nH]1
IC50 (second compound 0.0316 µM): > 10000 nM | IC50 (second compound 0.1 µM): > 10000 nM | IC50 (second compound 0.316 µM): > 10000 nM | IC50 (second compound 1 µM): > 10000 nM | IC50 (second compound 3.16 µM): > 10000 nM | IC50 (second compound 10 µM): > 10000 nM | viability, T/C [1]: 112% | viability, T/C [2]: 101% | viability, T/C [3]: 105% | viability, T/C [4]: 101% | viability, T/C [5]: 95.8% | viability, T/C [6]: 67.5% | viability, T/C [7]: 95.8% | viability, T/C [8]: 107% | viability, T/C [9]: 109% | viability, T/C [10]: 102% | viability, T/C [11]: 92.5% | viability, T/C [12]: 63.7% | viability, T/C [13]: 110% | viability, T/C [14]: 99% | viability, T/C [15]: 111% | viability, T/C [16]: 117% | viability, T/C [17]: 83.9% | viability, T/C [18]: 65% | viability, T/C [19]: 94.8% | viability, T/C [20]: 101% | viability, T/C [21]: 112% | viability, T/C [22]: 93.3% | viability, T/C [23]: 85.2% | viability, T/C [24]: 61.5% | viability, T/C [25]: 89.1% | viability, T/C [26]: 101% | viability, T/C [27]: 96.8% | viability, T/C [28]: 97.5% | viability, T/C [29]: 96% | viability, T/C [30]: 66% | viability, T/C [31]: 101% | viability, T/C [32]: 91.9% | viability, T/C [33]: 88.3% | viability, T/C [34]: 93.7% | viability, T/C [35]: 79.9% | viability, T/C [36]: 59.7%
